Key:
[1] = molecular target: T1, SOS-mediated nucleotide exchange on Ras (Homo sapiens, UniProt Q07889); experiment: SOS-mediated nucleotide exchange on Ras (BODIPY-GDP fluorescence); assay type: biochemical; settings: Ras loaded with BODIPY-GDP, GTP and SOS added; EC50 from derived exchange rates
T1 sequence (Q07889 1-1333): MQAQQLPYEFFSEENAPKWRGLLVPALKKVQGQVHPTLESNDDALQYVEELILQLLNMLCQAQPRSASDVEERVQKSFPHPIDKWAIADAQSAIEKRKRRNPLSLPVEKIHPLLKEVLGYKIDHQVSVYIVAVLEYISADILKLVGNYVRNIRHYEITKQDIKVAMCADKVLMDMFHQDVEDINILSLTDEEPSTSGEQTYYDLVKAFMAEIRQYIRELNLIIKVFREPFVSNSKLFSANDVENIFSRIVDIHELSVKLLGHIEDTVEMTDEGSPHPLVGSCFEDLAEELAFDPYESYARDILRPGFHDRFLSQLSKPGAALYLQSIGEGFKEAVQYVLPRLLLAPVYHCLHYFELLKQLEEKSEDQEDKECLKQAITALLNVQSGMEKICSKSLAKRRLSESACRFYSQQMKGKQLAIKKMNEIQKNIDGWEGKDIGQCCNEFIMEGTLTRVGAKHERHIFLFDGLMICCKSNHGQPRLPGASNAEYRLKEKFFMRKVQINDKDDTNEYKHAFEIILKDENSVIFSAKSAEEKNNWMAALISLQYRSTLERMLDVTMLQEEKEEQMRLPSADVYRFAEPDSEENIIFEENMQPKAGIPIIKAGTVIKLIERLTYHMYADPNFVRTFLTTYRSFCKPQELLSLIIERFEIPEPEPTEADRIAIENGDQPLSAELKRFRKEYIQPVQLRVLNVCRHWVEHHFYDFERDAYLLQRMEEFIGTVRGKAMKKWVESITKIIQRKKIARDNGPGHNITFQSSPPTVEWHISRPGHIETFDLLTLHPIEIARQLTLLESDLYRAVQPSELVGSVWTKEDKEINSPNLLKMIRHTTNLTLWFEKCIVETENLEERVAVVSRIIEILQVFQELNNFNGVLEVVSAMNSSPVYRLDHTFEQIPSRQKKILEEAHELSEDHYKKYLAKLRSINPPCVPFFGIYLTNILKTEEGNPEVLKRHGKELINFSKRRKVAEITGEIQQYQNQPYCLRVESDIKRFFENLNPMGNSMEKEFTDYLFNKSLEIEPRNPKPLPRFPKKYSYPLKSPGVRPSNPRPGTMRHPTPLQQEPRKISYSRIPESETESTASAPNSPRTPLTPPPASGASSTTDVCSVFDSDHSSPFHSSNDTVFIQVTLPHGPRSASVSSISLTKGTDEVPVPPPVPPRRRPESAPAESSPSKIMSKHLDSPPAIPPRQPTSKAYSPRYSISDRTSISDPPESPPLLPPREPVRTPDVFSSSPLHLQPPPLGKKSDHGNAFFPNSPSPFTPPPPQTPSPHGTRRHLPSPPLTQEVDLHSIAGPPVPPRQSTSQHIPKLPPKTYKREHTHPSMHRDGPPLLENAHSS
Protocol: A. SOS-Mediated Nucleotide Exchange on Ras
Compounds of the present invention were tested for their ability to modify the rate at which Ras exchanges a labeled nucleotide guanosine diphosphate (GDP) analog for guanosine triphosphate (GTP). Briefly, test compounds, then GTP and the Ras GEF SOS (Son of Sevenless) are added to a buffered solution containing Ras protein loaded with BODIPY-GDP. Changes in fluorescence indicating exchange of the labeled GDP for GTP are monitored over time. Raw fluorescence data was fit to a single exponential decay function and derived rates were plotted as mean values. EC50 values were calculated by plotting mean derived rates as a function of compound concentration and fit using a four-parameter dose-response curve. Full assay details are disclosed in: Burns, M. C.; Sun, Q.; Daniels, R. N.; Camper, D. V.; Kennedy, J. P.; Phan, J.; Olejniczak, E. O.; Lee, T.; Waterson, A. G.; Rossanese, O. W.; Fesik, S. W. “Approach for targeting Ras with small molecules that activate SOS-mediated nucleotide exchange” Proc. Natl. Acad. Sci. 2014; 11(9): 3401-3406. PMCID: PMC3948241.

Son of Sevenless (SOS) = molecular target: T2, Son of Sevenless (SOS) (Homo sapiens, UniProt Q07889); experiment: Binding to SOS, fluorescence polarization anisotropy (FPA) displacement of FITC-conjugated probe; settings: binding affinity calculated from IC50 of FITC-probe displacement, read-out: Binding affinities (binding affinity to SOS)
T2 sequence (Q07889 564-1049 limits assumed): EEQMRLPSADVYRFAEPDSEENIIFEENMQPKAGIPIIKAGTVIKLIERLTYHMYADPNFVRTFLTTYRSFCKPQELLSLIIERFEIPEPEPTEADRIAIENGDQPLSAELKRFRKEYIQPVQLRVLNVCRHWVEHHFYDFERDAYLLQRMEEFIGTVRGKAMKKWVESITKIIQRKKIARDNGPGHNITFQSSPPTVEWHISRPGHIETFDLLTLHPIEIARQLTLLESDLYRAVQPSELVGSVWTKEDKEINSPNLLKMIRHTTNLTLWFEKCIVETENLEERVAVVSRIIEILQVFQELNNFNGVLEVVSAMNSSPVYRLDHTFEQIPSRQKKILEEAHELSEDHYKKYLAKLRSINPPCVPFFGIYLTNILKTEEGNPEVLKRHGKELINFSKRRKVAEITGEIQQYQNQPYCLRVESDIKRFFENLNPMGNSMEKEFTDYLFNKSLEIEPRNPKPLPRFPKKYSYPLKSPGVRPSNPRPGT
Protocol: Compounds of the present invention were tested for their ability to the Ras guanine exchange factor (GEF) Son of Sevenless (SOS). Binding to SOS was measured using a Fluorescence polarization anisotropy (FPA) assay that assesses the ability of a test compound to displace a fluorescent FITC-conjugated compound. Briefly, the labeled probe compound is incubated with SOS in buffer. Changes in anisotropy indicative of displacement of the labeled probe for a test compound are assessed over a dose range of test compound. Data was analyzed by plotting fluorescence anisotropy values as a function of compound concentration. IC50 values were determined using a four-parameter dose-response (variable slope) and binding affinities were calculated from this IC50 value. This assay is performed in a method analogous to the assay disclosed in: Burns, M. C.; Sun, Q.; Daniels, R. N.; Camper, D. V.; Kennedy, J. P.; Phan, J.; Olejniczak, E. O.; Lee, T.; Waterson, A. G.; Rossanese, O. W.; Fesik, S. W. “Approach for targeting Ras with small molecules that activate SOS-mediated nucleotide exchange” Proc. Natl. Acad. Sci. 2014; 11(9): 3401-3406. PMCID: PMC3948241.

Row | EC50 [1] [µM] | Ki (Son of Sevenless (SOS)) [µM] | Structure (SMILES)
1 | 1 to 5 | > 5 | C[C@@H](Nc1nc(Nc2ccc(F)c(Cl)c2)nc2c(CN)cccc12)C1CC1 [Example 56, (R)-8-(aminomethyl)-N^2-(3-chloro-4-fluorophenyl)-N^4-(1-cyclopropylethyl)quinazoline-2,4-diamine]
2 | 1 to 5 | 1 to 5 | C[C@@H](Nc1nc(Nc2ccc(F)c(Cl)c2)nc2c(CCN)cccc12)C1CC1 [Example 60, (R)-8-(2-aminoethyl)-N^2-(3-chloro-4-fluorophenyl)-N^4-(1-cyclopropylethyl)quinazoline-2,4-diamine]
3 | < 1 | 1 to 5 | C[C@@H](Nc1nc(Nc2ccc(F)c(Cl)c2)nc2c(C3=CCNCC3)cccc12)C1CC1 [Example 62, (R)—N^2-(3-chloro-4-fluorophenyl)-N^4-(1-cyclopropylethyl)-8-(1,2,3,6-tetrahydropyridin-4-yl)quinazoline-2,4-diamine]
4 | > 30 | > 5 | C[C@@H](Nc1nc(NCCc2c[nH]cn2)nc2c(C3=CCNCC3)cccc12)C1CC1 [Example 63, (R)—N^2-(2-(1H-imidazol-4-yl)ethyl)-N^4-(1-cyclopropylethyl)-8-(1,2,3,6-tetrahydropyridin-4-yl)quinazoline-2,4-diamine]
5 | 5 to 30 | > 5 | C[C@@H](Nc1nc(Nc2ccc(F)c(Cl)c2)nc2c(NCCN(C)C)cccc12)C1CC1 [Example 67, (R)—N^2-(3-chloro-4-fluorophenyl)-N^4-(1-cyclopropylethyl)-N8-(2-(dimethylamino)ethyl)quinazoline-2,4,8-triamine]
6 | 1 to 5 | < 1 | C[C@@H](Nc1nc(NCC2CCCCC2)nc2c(CCN)cccc12)C1CC1 [Example 77]
7 | 5 to 30 | 1 to 5 | C[C@@H](Nc1nc(NCC2CCCCC2)nc2c(CCN)cccc12)C(C)(C)C [Example 84, (R)-8-(2-aminoethyl)-N^2-(cyclohexylmethyl)-N^4-(3,3-dimethylbutan-2-yl)quinazoline-2,4-diamine]
8 | 5 to 30 | > 5 | C[C@@H](Nc1nc(NCC2CCCCC2)nc2c(CN)cccc12)C(C)(C)C [Example 86, (R)-8-(aminomethyl)-N^2-(cyclohexylmethyl)-N^4-(3,3-dimethylbutan-2-yl)quinazoline-2,4-diamine]
9 | 5 to 30 | > 5 | C[C@@H](Nc1nc(NCc2cccc(Cl)c2F)nc2c(CN)cccc12)C(C)(C)C [Example 87, (R)-8-(aminomethyl)-N^2-(3-chloro-2-fluorobenzyl)-N^4-(3,3-dimethylbutan-2-yl)quinazoline-2,4-diamine]
10 | 1 to 5 | 1 to 5 | Cc1cc(F)cc(Nc2nc(N[C@H](C)c3cccs3)c3cccc(C4=CCNCC4)c3n2)c1 [Example 89, (R)—N^2-(3-fluoro-5-methylphenyl)-8-(1,2,3,6-tetrahydropyridin-4-yl)-N^4-(1-(thiophen-2-yl)ethyl)quinazoline-2,4-diamine]
11 | 1 to 5 | 1 to 5 | C[C@@H](Nc1nc(NCC2CCCCC2)nc2c(C3=CCNCC3)cccc12)c1cccs1 [Example 90, (R)—N^2-(cyclohexylmethyl)-8-(1,2,3,6-tetrahydropyridin-4-yl)-N^4-(1-(thiophen-2-yl)ethyl)quinazoline-2,4-diamine]

The next lines start with the compound.

Row | Structure (SMILES) | EC50 [1] [µM] | Ki (Son of Sevenless (SOS)) [µM]
12 | C[C@@H](Nc1nc(Nc2ccc(F)c(Cl)c2)nc2c(NCCO)cccc12)C1CC1 [Example 54, (R)-2-((2-((3-chloro-4-fluorophenyl)amino)-4-((1-cyclopropylethyl)amino)quinazolin-8-yl)amino)ethan-1-ol] | > 30 | > 5
13 | C[C@@H](Nc1nc(Nc2ccc(F)c(Cl)c2)nc2c(C#N)cccc12)C1CC1 [Example 55, (R)-2-((3-chloro-4-fluorophenyl)amino)-4-((1-cycloprprpylethyl)amino)quinazoline-8-carbonitrile] | > 30 | > 5
14 | C[C@@H](Nc1nc(Nc2ccc(F)c(Cl)c2)nc2c(NCCN)cccc12)C1CC1 [Example 65, (R)—N^8-(2-aminoethyl)-N^2-(3-chloro-4-fluorophenyl)-N^4-(1-cyclopropylethyl)quinazoline-2,4,8-triamine] | 5 to 30 | > 5
15 | C[C@@H](Nc1nc(Nc2ccc(F)c(Cl)c2)nc2c(NCCCN)cccc12)C1CC1 [Example 66, (R)—N^8-(3-aminopropyl)-N^2-(3-chloro-4-fluorophenyl)-N^4-(1-cyclopropylethyl)quinazoline-2,4,8-triamine] | 5 to 30 | > 5
16 | NCCc1cccc2c(NC(C3CC3)C3CC3)nc(NCC3CCCCC3)nc12 [Example 74, 8-(2-aminoethyl)-N^2-(cyclohexylmethyl)-N^4-(dicyclopropylmethyl)quinazoline-2,4-diamine] | 1 to 5 | 1 to 5
17 | C[C@@H](Nc1nc(NCC2CCCCC2)nc2c(C3=CCNCC3)cccc12)C(C)(C)C [Example 81, (R)—N^2-(cyclohexylmethyl)-N^4-(3,3-dimethylbutan-2-yl)-8-(1,2,3,6-tetrahydropyridin-4-yl)quinazoline-2,4-diamine] | 1 to 5 | > 5
18 | C[C@@H](Nc1nc(Nc2ccc(F)c(Cl)c2)nc2c(CCN)cccc12)C(C)(C)C [Example 82, (R)-8-(2-aminoethyl)-N^2-(3-chloro-4-fluorophenyl)-N^4-(3,3-dimethylbutan-2-yl)quinazoline-2,4-diamine] | 5 to 30 | > 5
19 | C[C@@H](Nc1nc(NCc2cccc(Cl)c2F)nc2c(CCN)cccc12)C(C)(C)C [Example 85, (R)-8-(2-aminoethyl)-N^2-(3-chloro-2-fluorobenzyl)-N^4-(3,3-dimethylbutan-2-yl)quinazoline-2,4-diamine] | 5 to 30 | 1 to 5
